{"source": "patent US20060094691A1", "about": "“Inclusion complexes of rosiglitazone” (priority 2002, published 2006)", "experiment": "Intrinsic Dissolution Rate (IDR) at pH 6.8 of the cyclodextrin complexes (Sotax intrinsic dissolution assembly, USP<1087>)", "type": "physicochemical", "settings": "100 rpm", "experimental": "Data: Intrinsic Dissolution Rate (IDR) at pH 6.8 of the Cyclodextrin Complexes\nThe intrinsic dissolution rate was measured with a Sotax intrinsic dissolution assembly according to the procedure described in USP<1087>. The 8 mm diameter disc was formed from approximately 150 mg of cyclodextrin complex and compressed at a force of 5 tons for 30 seconds using a benchtop hydraulic press. The dissolution media was 1000 mL of water containing 31.6 mL of 1 M hydrochloric acid solution and 2.0 g of sodium chloride, which was adjusted to pH 6.8 with Tris/Acetate buffer, the dissolution volume was 900 mL at 37° C. and the rotating speed was 100 rpm. Detection was performed by flow through UV sampling every 2 minutes for 1 hour at 245 nm with a 1 cm path length.", "data": [{"smiles": "CN(CCOc1ccc(CC2SC(=O)NC2=O)cc1)c1ccccn1.O=C(O)/C=C\\C(=O)O", "note": "(centres unmarked) [Maleate salt of Compound 1, 5-[4-[2-(N-methyl-N-(2-pyridyl)amino)ethoxy]benzyl]thiazolidine-2,4-dione, maleate salt]", "values": [{"measurement": "IDR relative to the Maleate salt of Compound 1", "setting": "pH 6.8, 37° C., ratio to the maleate salt", "value": 1}, {"measurement": "IDR", "setting": "pH 6.8 dissolution media, 900 mL, 37° C., 8 mm disc, UV 245 nm", "value": 0.057, "unit": "mg/min/cm^2"}]}]}
